According to patent US20040052750A1, “Compositions for prevention and alleviation of skin wrinkles” (priority 2000, published 2004):
Structures can show the parent of a compound that is named as a salt. Marks after values point to notes of the source that are not given here.

Assays:
[1] = system: fibroblasts derived from a human; experiment: Promoting collagen production in fibroblasts (3H-proline incorporation into collagenase-sensitive protein); assay type: cell-based; conditions: control = 100%
Method: The experimental protocol in detail is as follows.
Human-derived fibroblasts were transferred to a 24 well plate and cultured in a medium containing 10% fetal bovine serum (FBS) for 24 hours, followed by washing twice with phosphate buffered saline. […] After the incubation was terminated, cells from each group were harvested and two fractions of each culture were prepared. One fraction from each culture was treated with collagenase. To all fractions was added trichloroacetic acid to precipitate proteins. The amount of radioactivity incorporated into collagenase-sensitive protein was measured and compared with that of the other fraction which was not treated with collagenase. The difference in radioactivity was attributed to the promoting effect of the compound.

rat skin = experiment: Promotion of collagen production in rat skin (hydroxyproline in implanted PVA sponge); assay type: in vivo, SD rats; conditions: 200 μl every day for 10 days, control = 100%
Method: In brief, 5-week male SD rats were grouped with 5 rats per group. The rats were each incised 1 cm in the center of their abdomens and PVA sponges (Unipoint ind.) were inserted therein. After suturing, as for experimental groups, respective active ingredients to be examined were applied to the PVA sponge-embeded regions i n a volume o f 200 μl every day for 10 days. Upon autopsy, the PVA sponge was removed to quantify hydroxyproline. The PVA sponge was added with 4 ml of 6 N HCl, hydrolized at 130° C. for 3 hours and was subjected to complete drying. 50 μl of methanol was added and the solution was incubated at 110° C. until HCl was removed. 1.2 ml of 50% isopropanol was added to dissolve the remaining precipitate. 200 μl of chloramine-T (sodium p-toluensulfochloramide trihydrate) solution was added while stirring, and let stand for 10 min. After adding 1.2 ml of Ehrlich reagent and mixing, the solution was incubated at 50° C. for 90 min. The resulting solution was cooled to room temperature and absorbance at 558 nm was measured. Hydroxyproline standard solutions were prepared by dissolving 1 mg hydroxyproline in 1 ml HCl and diluting it to concentrations of 0, 0.2, 0.4, 0.8, 1 mg each relative to 25 μl of 6 N HCl. The standard solutions were hydrolyzed at 130° C. for 3 hours. The quantified value of hydroxyproline, relative to hydroxyproline value (100%) of the control group which was applied with solvent only, are shown in Table 2.

hairless mice [2] = experiment: Inhibiting the generation of wrinkles in hairless mice (simulated sunlight); assay type: in vivo; conditions: 10 per group
Method: 6-week hairless mice were placed into 21 experimental groups and 3 control groups, with 10 rats per group. […] The experimental protocol in detail is as follows. Hairless mice were radiated using simulated sunlight at a dose of 2 MED (double Minimal Erythema Dose) 3 days a week for […], thereby generating wrinkles. Respective active ingredients or the solvent only were applied twice every day (specifically, on radiation days, the application was performed at 30 min before and after the radiation), at a volume of 100 μl each for 10 weeks from the first radiation day. Degrees of inhibition of generated wrinkles were determined. The determination was performed by visual observation with naked eyes and photography.

hairless mice [3] = experiment: Alleviating photo-induced wrinkles in hairless mice; assay type: in vivo; conditions: twice a day for 6 weeks, 10 per group
Method: Mice were placed into 21 experimental groups and 3 control groups, with 10 rats per group. […] The experimental protocol is as follows. Hairless mice were radiated using a simulated sunlight at a dose of 2 MED (double Minimal Erythema Dose) 3 days a week for 10 weeks, thereby generating wrinkles. Then, respective active ingredients or the solvent only were applied at a volume of 100 μl each, twice a day for 6 weeks. Degrees of wrinkle reduction were determined. The determination was performed by visually observing the compound-applied region with naked eyes, and the region was photographed. The degrees of alleviation of wrinkles in the compound-treatment groups (experimental groups) were compared with those of the control group and were determined as one of 4 stages, that is, none (Score 0), slight (Score 1), moderate (Score 2) and high (Score 3), and the corresponding mice were counted.

Row | Compound | Effect of promoting collagen production in fibroblasts (rate of collagen production) ([1]; 10^-5 M) [%] | Effect of promoting collagen production in fibroblasts (rate of collagen production) ([1]; 10^-6 M) [%] | Effect of promoting collagen production in fibroblasts (rate of collagen production) ([1]; 10^-7 M) [%] | Effect of promoting collagen production in fibroblasts (rate of collagen production) ([1]; 10^-8 M) | Inhibition of wrinkles, Score 0 (none) (hairless mice [2]; 10^-3 M) | Inhibition of wrinkles, Score 1 (slight) (hairless mice [2]; 10^-3 M) | Inhibition of wrinkles, Score 2 (moderate) (hairless mice [2]; 10^-3 M) | Inhibition of wrinkles, Score 3 (high) (hairless mice [2]; 10^-3 M) | Inhibition of wrinkles, Score 0 (none) (hairless mice [2]; 10^-5 M) | Inhibition of wrinkles, Score 1 (slight) (hairless mice [2]; 10^-5 M) | Inhibition of wrinkles, Score 2 (moderate) (hairless mice [2]; 10^-5 M) | Inhibition of wrinkles, Score 3 (high) (hairless mice [2]; 10^-5 M) | Inhibition of wrinkles, Score 0 (none) (hairless mice [2]; 10^-8 M) | Inhibition of wrinkles, Score 1 (slight) (hairless mice [2]; 10^-8 M) | Inhibition of wrinkles, Score 2 (moderate) (hairless mice [2]; 10^-8 M) | Inhibition of wrinkles, Score 3 (high) (hairless mice [2]; 10^-8 M) | Reduction of wrinkles, Score 0 (none) (hairless mice [3]; 10^-3 M) | Reduction of wrinkles, Score 1 (slight) (hairless mice [3]; 10^-3 M) | Reduction of wrinkles, Score 2 (moderate) (hairless mice [3]; 10^-3 M) | Reduction of wrinkles, Score 3 (high) (hairless mice [3]; 10^-3 M) | further results
1 | COc1ccc(CCN(C)CCCC(C#N)(c2ccc(OC)c(OC)c2)C(C)C)cc1OC (stereo not shown) [Verapamil HCl] | 355.12 | 331.09 | 280.23 | 183.25% | 0 number of mice | 0 number of mice | 1 number of mice | 9 number of mice | 0 number of mice | 1 number of mice | 2 number of mice | 7 number of mice | 0 number of mice | 1 number of mice | 1 number of mice | 8 number of mice | 0 number of mice | 1 number of mice | 2 number of mice | 7 number of mice | Effect of promoting collagen production in animal skin (hydroxyproline value vs control) (rat skin; 10^-5 M): 183.32%; Effect of promoting collagen production in animal skin (hydroxyproline value vs control) (rat skin; 10^-6 M): 167.06%; Effect of promoting collagen production in animal skin (hydroxyproline value vs control) (rat skin; 10^-7 M): 147.39%; Effect of promoting collagen production in animal skin (hydroxyproline value vs control) (rat skin; 10^-8 M): 135.63%; Reduction of wrinkles, Score 0 (none) (hairless mice [3]; 10^-5 M): 0 number of mice; Reduction of wrinkles, Score 1 (slight) (hairless mice [3]; 10^-5 M): 2 number of mice; Reduction of wrinkles, Score 2 (moderate) (hairless mice [3]; 10^-5 M): 1 number of mice; Reduction of wrinkles, Score 3 (high) (hairless mice [3]; 10^-5 M): 7 number of mice; Reduction of wrinkles, Score 0 (none) (hairless mice [3]; 10^-8 M): 0 number of mice; Reduction of wrinkles, Score 1 (slight) (hairless mice [3]; 10^-8 M): 2 number of mice; Reduction of wrinkles, Score 2 (moderate) (hairless mice [3]; 10^-8 M): 2 number of mice; Reduction of wrinkles, Score 3 (high) (hairless mice [3]; 10^-8 M): 6 number of mice
2 | COC(=O)C1=C(C)NC(C)=C(C(=O)OC)C1c1ccccc1[N+](=O)[O-] [Nifedipine] | 358.16 | 330.30 | 292.21 | 204.31% | 0 number of mice | 2 number of mice | 3 number of mice | 5 number of mice | 0 number of mice | 2 number of mice | 3 number of mice | 5 number of mice | 0 number of mice | 2 number of mice | 3 number of mice | 5 number of mice | 0 number of mice | 2 number of mice | 2 number of mice | 6 number of mice | Reduction of wrinkles, Score 0 (none) (hairless mice [3]; 10^-5 M): 0 number of mice; Reduction of wrinkles, Score 1 (slight) (hairless mice [3]; 10^-5 M): 2 number of mice; Reduction of wrinkles, Score 2 (moderate) (hairless mice [3]; 10^-5 M): 2 number of mice; Reduction of wrinkles, Score 3 (high) (hairless mice [3]; 10^-5 M): 6 number of mice; Reduction of wrinkles, Score 0 (none) (hairless mice [3]; 10^-8 M): 0 number of mice; Reduction of wrinkles, Score 1 (slight) (hairless mice [3]; 10^-8 M): 2 number of mice; Reduction of wrinkles, Score 2 (moderate) (hairless mice [3]; 10^-8 M): 3 number of mice; Reduction of wrinkles, Score 3 (high) (hairless mice [3]; 10^-8 M): 5 number of mice
3 | CCCC(CCC)C(=O)O [Valproic acid] | 370.21 | 332.11 | 283.24 | 201.13% | 0 number of mice | 0 number of mice | 2 number of mice | 8 number of mice | 0 number of mice | 1 number of mice | 2 number of mice | 7 number of mice | 0 number of mice | 1 number of mice | 1 number of mice | 8 number of mice | 0 number of mice | 0 number of mice | 2 number of mice | 8 number of mice | Effect of promoting collagen production in animal skin (hydroxyproline value vs control) (rat skin; 10^-5 M): 178.13%; Effect of promoting collagen production in animal skin (hydroxyproline value vs control) (rat skin; 10^-6 M): 157.72%; Effect of promoting collagen production in animal skin (hydroxyproline value vs control) (rat skin; 10^-7 M): 139.24%; Effect of promoting collagen production in animal skin (hydroxyproline value vs control) (rat skin; 10^-8 M): 128.05%; Reduction of wrinkles, Score 0 (none) (hairless mice [3]; 10^-5 M): 0 number of mice; Reduction of wrinkles, Score 1 (slight) (hairless mice [3]; 10^-5 M): 1 number of mice; Reduction of wrinkles, Score 2 (moderate) (hairless mice [3]; 10^-5 M): 2 number of mice; Reduction of wrinkles, Score 3 (high) (hairless mice [3]; 10^-5 M): 7 number of mice; Reduction of wrinkles, Score 0 (none) (hairless mice [3]; 10^-8 M): 0 number of mice; Reduction of wrinkles, Score 1 (slight) (hairless mice [3]; 10^-8 M): 1 number of mice; Reduction of wrinkles, Score 2 (moderate) (hairless mice [3]; 10^-8 M): 2 number of mice; Reduction of wrinkles, Score 3 (high) (hairless mice [3]; 10^-8 M): 7 number of mice
4 | O=C1NC(=O)C(c2ccccc2)(c2ccccc2)N1 [Phenytoin] | 381.54 | 360.65 | 298.35 | 215.28* % | 0 number of mice | 0 number of mice | 3 number of mice | 7 number of mice | 0 number of mice | 0 number of mice | 3 number of mice | 7 number of mice | 0 number of mice | 0 number of mice | 2 number of mice | 8 number of mice | 0 number of mice | 0 number of mice | 3 number of mice | 7 number of mice | Effect of promoting collagen production in animal skin (hydroxyproline value vs control) (rat skin; 10^-5 M): 182.47%; Effect of promoting collagen production in animal skin (hydroxyproline value vs control) (rat skin; 10^-6 M): 167.41%; Effect of promoting collagen production in animal skin (hydroxyproline value vs control) (rat skin; 10^-7 M): 143.51%; Effect of promoting collagen production in animal skin (hydroxyproline value vs control) (rat skin; 10^-8 M): 132.58* %; Reduction of wrinkles, Score 0 (none) (hairless mice [3]; 10^-5 M): 0 number of mice; Reduction of wrinkles, Score 1 (slight) (hairless mice [3]; 10^-5 M): 1 number of mice; Reduction of wrinkles, Score 2 (moderate) (hairless mice [3]; 10^-5 M): 3 number of mice; Reduction of wrinkles, Score 3 (high) (hairless mice [3]; 10^-5 M): 6 number of mice; Reduction of wrinkles, Score 0 (none) (hairless mice [3]; 10^-8 M): 0 number of mice; Reduction of wrinkles, Score 1 (slight) (hairless mice [3]; 10^-8 M): 1 number of mice; Reduction of wrinkles, Score 2 (moderate) (hairless mice [3]; 10^-8 M): 2 number of mice; Reduction of wrinkles, Score 3 (high) (hairless mice [3]; 10^-8 M): 7 number of mice
